Experimental findings from patent US20200009121A1, “Purpose for Soothing Brain Disorders of Patients from Drug Detoxification Using Biperiden HCL” (priority 2018, published 2020) are described below.

Counter-ions that a name gives are not always drawn.

The test system of this assay is brain disorders of patients from drug detoxification. In words: Biperiden Hcl given to patients after block-out of poisoning pathway (drug detoxification) treatment. Type of assay: in vivo. The conditions noted are these: dose 10 mg/ml. The method, then:
A Biperiden Hcl 10 medicine of the disclosure is a cure of Parkinson's disease and can reduce effect of acetylcholine of Extrapyramidal Symptoms (EPS) on it to further decrease excitement of central nervous. […] With reference to FIG. 1, a Biperiden Hcl 10 medicine is applied after patients are treated with block-out of poisoning pathway, wherein poisoning pathway treatment 20 can adapt intravenous drip prescription 30 disclosed in U.S. utility patent application Ser. No.10/004,781 owned by the inventor(s) and purpose treatment thereof, providing the intravenous drip prescription 30 to patients. The intravenous drip prescription 30 comprises a plurality of ingredients consisting of Cerebrolysin, Piracetam, Cimetidine, Scopolamine Butylbromide, Nefopam, B. C Complex, Vitamin B1, Ascorbic acid, Ketorolac, Guronsan, Hyoscien Butylbromide, and Sukerin. After a patient is dealt with poisoning pathway treatment 20, a dose (10 mg/ml) of Biperiden Hcl 10 is provided to the patient to sooth brain disorder of the patient from the poisoning pathway treatment 20 of the patient, capable of rapidly recovering consciousness and normal physiological state.

With `OC(CCN1CCCCC1)(c1ccccc1)C1CC2C=CC1C2` (stereo not shown) [Biperiden Hcl], the “soothing brain disorders of patients and recovering consciousness and normal physiological state” value is “excellent effect of soothing brain disorders of patients and recovering consciousness and normal physiological state”.
